This is an account of results in ChEMBL document CHEMBL1955732, “Synthesis and biological evaluation of 21-arylidenepregnenolone derivatives as neuroprotective agents” (Bioorg Med Chem Lett, 2012).

The source made the active and inactive calls. No cut-off for these calls is given here.

One data set deals with PC-12. Nature of the data set: Neuroprotective activity against Abeta25-35-induced […] cells assessed as cell viability at 10 uM preincubated for 2 hrs prior Abeta25-35 challenge measured after 24 hrs by MTT assay. Format: functional. The settings on record: Rattus norvegicus. (Formazan colour is commonly taken as a measure of viable cells.)
Turning to `CC(=O)[C@H]1CC[C@H]2[C@@H]3CC=C4C[C@@H](O)CC[C@]4(C)[C@H]3CC[C@]12C`, the outcome was inactive.
`C[C@]12CC[C@H]3[C@@H](CC=C4C[C@@H](O)CC[C@@]43C)[C@@H]1CC[C@@H]2C(=O)/C=C/c1ccccc1Br`: the result was inactive.
As for `COc1cccc(/C=C/C(=O)[C@H]2CC[C@H]3[C@@H]4C[C@@H]5O[C@@]56C[C@@H](O)CC[C@]6(C)[C@H]4CC[C@]23C)c1`, the outcome was inactive.
For the molecule `C[C@]12CC[C@H]3[C@@H](C[C@@H]4O[C@@]45C[C@@H](O)CC[C@]35C)[C@@H]1CC[C@@H]2C(=O)/C=C/c1ccc(C#N)cc1`, the outcome was inactive.
Take `C[C@]12CC[C@H]3[C@@H](CC=C4C[C@@H](O)CC[C@@]43C)[C@@H]1CC[C@@H]2C(=O)/C=C/c1ccccn1`: the result was inactive.
Consider `C[C@]12CC[C@H]3[C@@H](C[C@@H]4O[C@@]45C[C@@H](O)CC[C@]35C)[C@@H]1CC[C@@H]2C(=O)/C=C/c1ccccc1C(F)(F)F`, for which the outcome was inactive.
As to `C[C@]12CC[C@H]3[C@@H](CC=C4C[C@@H](O)CC[C@@]43C)[C@@H]1CC[C@@H]2C(=O)/C=C/c1ccccc1C(F)(F)F`, the outcome was inactive.
On to `CC(=O)[C@H]1CC[C@H]2[C@@H]3C[C@@H]4O[C@@]45C[C@@H](O)CC[C@]5(C)[C@H]3CC[C@]12C`, for which the outcome was inactive.
For the molecule `CCOc1ccc(/C=C/C(=O)[C@H]2CC[C@H]3[C@@H]4C[C@@H]5O[C@@]56C[C@@H](O)CC[C@]6(C)[C@H]4CC[C@]23C)cc1OC`, the outcome was inactive.
Take `CCOc1ccccc1/C=C/C(=O)[C@H]1CC[C@H]2[C@@H]3CC=C4C[C@@H](O)CC[C@]4(C)[C@H]3CC[C@]12C`: the result was inactive.

Staying with this data set, now noted: Rattus norvegicus, read-out: Activity.
As to `CC(C)c1ccc(/C=C/C(=O)[C@H]2CC[C@H]3[C@@H]4CC=C5C[C@@H](O)CC[C@]5(C)[C@H]4CC[C@]23C)cc1`, the viability at 10 µM came to 34.9%.
With `C[C@]12CC[C@H]3[C@@H](C[C@@H]4O[C@@]45C[C@@H](O)CC[C@]35C)[C@@H]1CC[C@@H]2C(=O)/C=C/c1ccccn1`, the viability at 10 µM was found to be 29.7%.
Consider `C[C@]12CC[C@H]3[C@@H](C[C@@H]4O[C@@]45C[C@@H](O)CC[C@]35C)[C@@H]1CC[C@@H]2C(=O)/C=C/c1ccco1`, for which the viability at 10 µM was determined as 82.7%.
The same measure, in the same setting: then `C[C@]12CC[C@H]3[C@@H](C[C@@H]4O[C@@]45C[C@@H](O)CC[C@]35C)[C@@H]1CC[C@@H]2C(=O)/C=C/c1cccc([N+](=O)[O-])c1`, with 31.3%; and `O=C(O[C@@H]1Cc2c(O)cc(O)cc2O[C@@H]1c1cc(O)c(O)c(O)c1)c1cc(O)c(O)c(O)c1` [EPIGALOCATECHIN GALLATE], with 65.4%.
For `C[C@]12CC[C@H]3[C@@H](C[C@@H]4O[C@@]45C[C@@H](O)CC[C@]35C)[C@@H]1CC[C@@H]2C(=O)/C=C/c1ccccc1Br`, the viability at 10 µM is 61.2%.
Same read-out and setting: the result for `C[C@]12CC[C@H]3[C@@H](C[C@@H]4O[C@@]45C[C@@H](O)CC[C@]35C)[C@@H]1CC[C@@H]2C(=O)/C=C/c1ccccc1` reads 70.5%.

The subject of a further data set is PC-12. Nature of the data set: Neuroprotective activity against Abeta25-35-induced […] cells assessed as cell viability at 1 uM preincubated for 2 hrs prior Abeta25-35 challenge measured after 24 hrs by MTT assay. The following applies: Rattus norvegicus. Format: functional.
`CC(C)c1ccc(/C=C/C(=O)[C@H]2CC[C@H]3[C@@H]4CC=C5C[C@@H](O)CC[C@]5(C)[C@H]4CC[C@]23C)cc1`: the outcome was inactive.
Regarding `C[C@]12CC[C@H]3[C@@H](C[C@@H]4O[C@@]45C[C@@H](O)CC[C@]35C)[C@@H]1CC[C@@H]2C(=O)/C=C/c1ccccn1`, the result was inactive.
With `C[C@]12CC[C@H]3[C@@H](C[C@@H]4O[C@@]45C[C@@H](O)CC[C@]35C)[C@@H]1CC[C@@H]2C(=O)/C=C/c1ccco1`, the outcome was inactive.
In the case of `C[C@]12CC[C@H]3[C@@H](C[C@@H]4O[C@@]45C[C@@H](O)CC[C@]35C)[C@@H]1CC[C@@H]2C(=O)/C=C/c1cccc([N+](=O)[O-])c1`, the outcome was inactive.
Turning to `CC(=O)[C@H]1CC[C@H]2[C@@H]3CC=C4C[C@@H](O)CC[C@]4(C)[C@H]3CC[C@]12C`, the result was inactive.
Same read-out and setting: the result for `C[C@]12CC[C@H]3[C@@H](CC=C4C[C@@H](O)CC[C@@]43C)[C@@H]1CC[C@@H]2C(=O)/C=C/c1ccccc1Br` reads “inactive”; that for `COc1cccc(/C=C/C(=O)[C@H]2CC[C@H]3[C@@H]4C[C@@H]5O[C@@]56C[C@@H](O)CC[C@]6(C)[C@H]4CC[C@]23C)c1`, “inactive”.
For the molecule `C[C@]12CC[C@H]3[C@@H](C[C@@H]4O[C@@]45C[C@@H](O)CC[C@]35C)[C@@H]1CC[C@@H]2C(=O)/C=C/c1ccc(C#N)cc1`, the result was inactive.
Turning to `C[C@]12CC[C@H]3[C@@H](CC=C4C[C@@H](O)CC[C@@]43C)[C@@H]1CC[C@@H]2C(=O)/C=C/c1ccccn1`, the result was inactive.
On to `C[C@]12CC[C@H]3[C@@H](C[C@@H]4O[C@@]45C[C@@H](O)CC[C@]35C)[C@@H]1CC[C@@H]2C(=O)/C=C/c1ccccc1C(F)(F)F`, for which the outcome was inactive.
For `C[C@]12CC[C@H]3[C@@H](CC=C4C[C@@H](O)CC[C@@]43C)[C@@H]1CC[C@@H]2C(=O)/C=C/c1ccccc1C(F)(F)F`, the outcome was inactive.
Turning to `C[C@]12CC[C@H]3[C@@H](C[C@@H]4O[C@@]45C[C@@H](O)CC[C@]35C)[C@@H]1CC[C@@H]2C(=O)/C=C/c1ccccc1Br`, the result was inactive.
As for `CC(=O)[C@H]1CC[C@H]2[C@@H]3C[C@@H]4O[C@@]45C[C@@H](O)CC[C@]5(C)[C@H]3CC[C@]12C`, the outcome was inactive.
In the case of `CCOc1ccccc1/C=C/C(=O)[C@H]1CC[C@H]2[C@@H]3CC=C4C[C@@H](O)CC[C@]4(C)[C@H]3CC[C@]12C`, the outcome was inactive.

Still in this data set, the particulars now being: Rattus norvegicus, read-out: Activity.
With `C[C@]12CC[C@H]3[C@@H](C[C@@H]4O[C@@]45C[C@@H](O)CC[C@]35C)[C@@H]1CC[C@@H]2C(=O)/C=C/c1ccccc1`, the viability at 1 µM stood at 64.8%.
Regarding `CCOc1ccc(/C=C/C(=O)[C@H]2CC[C@H]3[C@@H]4C[C@@H]5O[C@@]56C[C@@H](O)CC[C@]6(C)[C@H]4CC[C@]23C)cc1OC`, the viability at 1 µM was determined as 61.1%.

In the next data set the test system is PC-12. Nature of the data set: Cytotoxicity against […] cells at 10 uM after 24 hrs by MTT assay. The settings on record: rat, pc-12, 24 h. Format: cell-based.
Take `CC(C)c1ccc(/C=C/C(=O)[C@H]2CC[C@H]3[C@@H]4CC=C5C[C@@H](O)CC[C@]5(C)[C@H]4CC[C@]23C)cc1`: the Activity entry is recorded as “Toxic”.
As to `C[C@]12CC[C@H]3[C@@H](C[C@@H]4O[C@@]45C[C@@H](O)CC[C@]35C)[C@@H]1CC[C@@H]2C(=O)/C=C/c1ccccn1`, the Activity entry is “Toxic”.
With `C[C@]12CC[C@H]3[C@@H](C[C@@H]4O[C@@]45C[C@@H](O)CC[C@]35C)[C@@H]1CC[C@@H]2C(=O)/C=C/c1cccc([N+](=O)[O-])c1`, the Activity entry was “Toxic”.
